Assay results published in patent US7671079B2, “Sulfonyltetrahydro-3H-benzo(e)indole-8-amine compounds as 5-hydroxytryptamine-6 ligands” (Wyeth LLC, priority 2003, dated 2010).

Target: T1, human cloned 5-HT6 receptors (Homo sapiens, UniProt P50406)
T1 construct: expressed in transfected cells; host or cells: Hela cells
Test: 5-HT6 binding affinity, [3H]-LSD displacement on membranes of Hela cells expressing human cloned 5-HT6 receptors
Conditions: [3H]-LSD 3.0 nM, Hela cell membranes, 120 min at room temperature
Experimental: The affinity of test compounds for the serotonin 5-HT6 receptor is evaluated in the following manner. Cultured Hela cells expressing human cloned 5-HT6 receptors are harvested and centrifuged at low speed (1,000×g) for 10.0 min to remove the culture media. The harvested cells are suspended in half volume of fresh physiological phosphate buffered saline solution and recentrifuged at the same speed. This operation is repeated. The collected cells are then homogenized in ten volumes of 50 mM Tris.HCl (pH 7.4) and 0.5 mM EDTA. The homogenate is centrifuged at 40,000×g for 30.0 min and the precipitate is collected. The obtained pellet is resuspended in 10 volumes of Tris.HCl buffer and recentrifuged at the same speed. The final pellet is suspended in a small volume of Tris.HCl buffer and the tissue protein content is determined in aliquots of 10-25 μl volumes. Bovine Serum Albumin is used as the standard in the protein determination according to the method described in Lowry et al., J. Biol. Chem., 193:265 (1951). The volume of the suspended cell membranes is adjusted to give a tissue protein concentration of 1.0 mg/ml of suspension. The prepared membrane suspension (10 times concentrated) is aliquoted in 1.0 ml volumes and stored at −70° C. until used in subsequent binding experiments.
Binding experiments are performed in a 96 well microtiter plate format, in a total volume of 200 μl. […] The test compounds are added in 20.0 μl volume.
The reaction is allowed to proceed in the dark for 120 min at room temperature, at which time, the bound ligand-receptor complex is filtered off on a 96 well unifilter with a Packard Filtermate® 196 Harvester. The bound complex caught on the filter disk is allowed to air dry and the radioactivity is measured in a Packard TopCount® equipped with six photomultiplier detectors, after the addition of 40.0 μl Microscint®-20 scintillant to each shallow well. The unifilter plate is heat-sealed and counted in a PackardTopCount® with a tritium efficiency of 31.0%.
Binding in the presence of varying concentrations of test compound is expressed as a percentage of specific binding in the absence of test compound. The results are plotted as log % bound versus log concentration of test compound. […] A linear regression line of data points is plotted, from which the IC50 value is determined and the Ki value is determined based upon the following equation: Ki=IC50/(1+L/KD) where L is the concentration of the radioactive ligand used and KD is the dissociation constant of the ligand for the receptor, both expressed in nM.

T1 sequence (P50406 whole entry): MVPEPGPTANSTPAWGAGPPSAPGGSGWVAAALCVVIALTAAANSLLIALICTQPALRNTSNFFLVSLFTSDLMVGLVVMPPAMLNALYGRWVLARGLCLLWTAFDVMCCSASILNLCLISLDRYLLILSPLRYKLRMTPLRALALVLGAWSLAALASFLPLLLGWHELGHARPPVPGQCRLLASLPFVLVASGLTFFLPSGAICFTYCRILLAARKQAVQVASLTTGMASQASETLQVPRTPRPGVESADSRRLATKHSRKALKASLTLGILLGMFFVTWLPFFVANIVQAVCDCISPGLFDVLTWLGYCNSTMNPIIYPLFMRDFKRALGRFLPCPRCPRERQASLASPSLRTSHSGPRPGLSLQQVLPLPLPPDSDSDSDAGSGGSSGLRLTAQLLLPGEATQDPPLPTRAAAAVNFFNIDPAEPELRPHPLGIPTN

| Molecule | Ki |
| --- | --- |
| 3-[(2,3-dichlorophenyl)sulfonyl]-N,N-dimethyl-6,7,8,9-tetrahydro-3H-benzo[e]indol-8-amine [Example 16] | 6 nM |
| 3-[(2,6-dichloroimidazo[2,1-b][1,3]thiazol-5-yl)sulfonyl]-N,N-dimethyl-6,7,8,9-tetrahydro-3H-benzo[e]indol-8-amine [Example 19] | 5 nM |
| CN(C)C1CCc2ccc3c(ccn3S(=O)(=O)c3ccccc3)c2C1 (stereo not shown) [Example 8, N,N-Dimethyl-3-(Phenylsulfonyl)-6,7,8,9-tetrahydro-3H-benzo[e]indol-8-amine] | 1 nM |
| CN(C)C1CCc2ccc3c(ccn3S(=O)(=O)c3ccc(OC(F)(F)F)cc3)c2C1 (stereo not shown) [Example 9] | 79 nM |
| CN(C)C1CCc2ccc3c(ccn3S(=O)(=O)c3ccc(F)cc3)c2C1 (stereo not shown) [Example 11, 3-[(4-fluorophenyl)sulfonyl]-N,N-dimethyl-6,7,8,9-tetrahydro-3H-benzo[e]indol-8-amine] | 19 nM |
| CN(C)C1CCc2ccc3c(ccn3S(=O)(=O)c3ccc(C(F)(F)F)cc3Cl)c2C1 (stereo not shown) [Example 12] | 55 nM |
| CN(C)C1CCc2ccc3c(ccn3S(=O)(=O)c3ccc(F)c(F)c3)c2C1 (stereo not shown) [Example 13, 3-[(3,4-difluorophenyl)sulfonyl]-N,N-dimethyl-6,7,8,9-tetrahydro-3H-benzo[e]indol-8-amine] | 9 nM |
| CN(C)C1CCc2ccc3c(ccn3S(=O)(=O)c3ccccc3Cl)c2C1 (stereo not shown) [Example 14, 3-[(2-chlorophenyl)sulfonyl]-N,N-dimethyl-6,7,8,9-tetrahydro-3H-benzo[e]indol-8-amine] | 2 nM |
| CN(C)C1CCc2ccc3c(ccn3S(=O)(=O)c3cccc(Cl)c3)c2C1 (stereo not shown) [Example 15, 3-[(3-chlorophenyl)sulfonyl]-N,N-dimethyl-6,7,8,9-tetrahydro-3H-benzo[e]indol-8-amine] | 2 nM |
| CN(C)C1CCc2ccc3c(ccn3S(=O)(=O)c3ccc(F)cc3F)c2C1 (stereo not shown) [Example 17, 3-[(2,4-diflorophenyl)sulfonyl]-N,N-dimethyl-6,7,8,9-tetrahydro-3H-benzo[e]indol-8-amine] | 8 nM |
| CN(C)C1CCc2ccc3c(ccn3S(=O)(=O)c3c(Cl)nc4sccn34)c2C1 (stereo not shown) [Example 18, 3-[(6-chloroimidazo[2,1-b][1,3]thiazol-5-yl)sulfonyl]-N,N-dimethyl-6,7,8,9-tetrahydro-3H-benzo[e]indol-8-amine] | 6 nM |
| Cc1noc(C)c1S(=O)(=O)n1ccc2c3c(ccc21)CCC(N(C)C)C3 (stereo not shown) [Example 20] | 59 nM |
| Cc1ccc(S(=O)(=O)n2ccc3c4c(ccc32)CCC(NC2CC2)C4)cc1 (stereo not shown) [Example 21] | 103 nM |
| Cc1ccc(S(=O)(=O)n2ccc3c4c(ccc32)CCC(NC2CCC2)C4)cc1 (stereo not shown) [Example 24] | 36 nM |
| CCCNC1CCc2ccc3c(ccn3S(=O)(=O)c3ccc(C)cc3)c2C1 (stereo not shown) [Example 25] | 12 nM |
| N,N-dimethyl-3-(2-naphthylsulfonyl)-6,7,8,9-tetrahydro-3H-benzo[e]indol-8-amine [Example 10] | 13 nM |
